In patent US20080206447A1, “ORGANIC-ELECTROLUMINESCENCE-MATERIAL-CONTAINING SOLUTION, METHOD FOR FORMING ORGANIC ELECTROLUMINESCENCE THIN FILM AND ORGANIC ELECTROLUMINESCENCE DEVICE” (Idemitsu Kosan Co., Ltd., priority 2007, published 2008):

Experiments:
Format in all cases: physicochemical
Viscosity of the solvent = details: neat solvent, 22 degrees C
Protocol: 100 mg of a compound A represented by the following formula was put into a sample bottle, and a solvent was dropped thereinto while stirring until the compound A was completely dissolved. The solubility of the compound A in the solvent was calculated from an amount of the dropped solvent. The viscosity of the solvent was measured at the temperature of 22 degrees C.

[1] = Solubility in 4-isopropylbiphenyl at 0.5 wt % by visual check; design: key to Solubility: A: solution that contained no insoluble element; B: solution that contained insoluble element(s); details: for Solubility: added to 4-isopropylbiphenyl at 0.5 wt %, visual check; for Solubility in 4-isopropylbiphenyl (in words): 0.5 wt %
Description: The results are shown in Table 2, where solution that contained no insoluble element is rated as “A” while solution that contained insoluble element(s) is rated as “B”.

[2] = Solvent solubility of para-substituted naphthacene compound; details: solvent not stated

Row | Compound | Viscosity (Viscosity of the solvent) [cP] | Solubility [1] | further results
1 | Cc1ccc(Cc2ccc(C)c(C)c2)cc1C [1,1-bis(3,4-dimethylphenyl)methane] | 33.6 |  | 
2 | CCc1cccc(-c2ccccc2)c1 [3-ethylbiphenyl] | 5.6 |  | 
3 | CC(C)c1ccc(-c2ccccc2)cc1 [4-isopropylbiphenyl] | 6.9 |  | 
4 | c1cc(-c2ccc(-c3ccc4ccccc4c3)cc2)cc(-c2c3ccccc3c(-c3ccc(-c4cccc5ccccc45)cc3)c3ccccc23)c1 [Compound B] |  | A | 
5 | c1ccc2cc(-c3ccc(-c4c5ccccc5c(-c5ccc(-c6cccc7ccccc67)cc5)c5ccccc45)cc3)ccc2c1 [Compound C] |  | A | 
6 | c1ccc2cc(-c3ccc4cc(-c5c6ccccc6c(-c6ccc(-c7cccc8ccccc78)cc6)c6ccccc56)ccc4c3)ccc2c1 [Compound D] |  | A | 
7 | c1ccc(-c2cc(-c3ccc4ccccc4c3)cc(-c3c4ccccc4c(-c4ccc5ccccc5c4)c4ccccc34)c2)cc1 [Compound E] |  | A | 
8 | c1cc(-c2ccc3ccccc3c2)cc(-c2c3ccccc3c(-c3cccc4ccccc34)c3ccccc23)c1 [Compound F] |  | B | Solubility in 4-isopropylbiphenyl (in words) [1]: low solubility
9 | c1cc(-c2ccc3ccccc3c2)cc(-c2c3ccccc3c(-c3ccc4cc(-c5ccc6ccccc6c5)ccc4c3)c3ccccc23)c1 [Compound G] |  | B | Solubility in 4-isopropylbiphenyl (in words) [1]: low solubility
10 | c1ccc(-c2ccc(-c3c4ccccc4c(-c4ccccc4)c4ccccc34)cc2)cc1 [Compound H] |  | B | Solubility in 4-isopropylbiphenyl (in words) [1]: low solubility
11 | c1ccc(-c2c3ccccc3c(-c3cccc(-c4cccc(-c5c6ccccc6c(-c6ccccc6)c6ccccc56)c4)c3)c3ccccc23)cc1 [Compound I] |  | B | Solubility in 4-isopropylbiphenyl (in words) [1]: low solubility
12 | c1ccc(-c2ccc(-c3ccccc3)c(-c3ccc(-c4cc(-c5ccccc5)ccc4-c4ccccc4)c4cc5cc6ccccc6cc5cc34)c2)cc1 [Compound J] |  | A | 
13 | c1ccc(-c2cc(-c3ccccc3)c(-c3c4ccccc4c(-c4ccccc4)c4cc5ccccc5cc34)c(-c3ccccc3)c2)cc1 [Compound K] |  | A | 
14 | c1ccc(-c2ccc(-c3c4ccccc4c(-c4ccc(-c5ccccc5)cc4-c4ccccc4)c4cc5ccccc5cc34)c(-c3ccccc3)c2)cc1 [Compound L] |  | B | Solubility in 4-isopropylbiphenyl (in words) [1]: low solubility
15 | c1ccc(-c2ccc(-c3c4ccccc4c(-c4ccc(-c5ccccc5)cc4)c4cc5ccccc5cc34)cc2)cc1 [Compound M] |  | B | Solubility in 4-isopropylbiphenyl (in words) [1]: low solubility
16 | c1ccc(-c2c3ccccc3c(-c3ccccc3)c3c(-c4ccccc4)c4ccccc4c(-c4ccccc4)c23)cc1 [Compound N] |  | B | Solubility in 4-isopropylbiphenyl (in words) [1]: lower solubility than the compounds J, K
17 | c1ccc(C2CCCCC2)cc1 [cyclohexyl benzene] | 2.6 |  | 
18 | CCCCCCCCCCCCc1ccccc1 [dodecylbenzene] | 4.5 |  | 
19 | c1ccc(-c2ccc(-c3c4ccccc4c(-c4ccc(-c5ccccc5)cc4-c4ccccc4)c4cc5ccccc5cc34)c(-c3ccccc3)c2)cc1 [drawing 5] |  |  | Solubility [2]: ≤ 0.1 wt %
20 | Cc1cc(C)cc(C)c1 [mesitylene] | 0.76 |  | 
21 | CCC(C)c1ccccc1 (centres unmarked) [s-butylbenzene] | 1.0 |  | 
22 | CC(C)(C)c1ccccc1 [t-butylbenzene] | 1.2 |  | 
23 | c1ccc2c(c1)CCCC2 [tetralin] | 2.3 |  | 
24 | Cc1ccccc1 [toluene] | 0.65 |  | 
25 | xylene | 0.76 |  | 
